Earlier results as cited in patent publication US12023346B1, “Compositions and methods for treating epilepsy” (POVIVA CORP, priority 2023, dated 2024).
Like-named read-outs stand apart in the source and are kept apart here.

C=C(C)[C@@H]1CCC(C)=C[C@H]1c1c(O)cc(CCCCC)cc1O [Cannabidiol, 2-[(1R,6R)-6-Isopropenyl-3-methylcyclohex-2-en-1-yl]-5-pentylbenzene-1,3-diol]
Plasma concentration on Day 22 at target CBD dose, 5 hours, Mean (SD) (5 mg/kg/day (N = 10)): 72.1 (49.0) ng/mL
Plasma concentration on Day 22 at target CBD dose, […], Mean (SD) (5 mg/kg/day (N = 10)): 130 (170) ng/mL
Plasma concentration on Day 1 at starting CBD dose, 5 hours, Mean (SD) (5 mg/kg/day group (N = 10)): 10.0 (5.74) ng/ml
Plasma concentration on Day 1 at starting CBD dose, Pre-dose, Mean (SD) (5 mg/kg/day group (N = 10)): 0 µg/mL
Plasma concentration on Day 1 at starting CBD dose, […], Mean (SD) (5 mg/kg/day group (N = 10)): 37.6 (53.7) ng/ml
Plasma concentration on Day 22 at target CBD dose, 5 hours, Mean (SD) (10 mg/kg/day (N = 8)): 288 (345) ng/mL
Plasma concentration on Day 22 at target CBD dose, […], Mean (SD) (10 mg/kg/day (N = 8)): 242 (159) ng/mL
Plasma concentration on Day 1 at starting CBD dose, 5 hours, Mean (SD) (10 mg/kg/day group (N = 8)): 11.3 (11.7) ng/ml
Plasma concentration on Day 1 at starting CBD dose, Pre-dose, Mean (SD) (10 mg/kg/day group (N = 8)): 0 µg/mL
Plasma concentration on Day 1 at starting CBD dose, […], Mean (SD) (10 mg/kg/day group (N = 8)): 34.4 (32.1) ng/ml
Plasma concentration on Day 22 at target CBD dose, 5 hours, Mean (SD) (20 mg/kg/day (N = 9)): 308 (321) ng/mL
Plasma concentration on Day 22 at target CBD dose, […], Mean (SD) (20 mg/kg/day (N = 9)): 380 (370) ng/mL
Plasma concentration on Day 1 at starting CBD dose, 5 hours, Mean (SD) (20 mg/kg/day group (N = 9)): 25.3 (42.4) ng/ml
Plasma concentration on Day 1 at starting CBD dose, Pre-dose, Mean (SD) (20 mg/kg/day group (N = 9)): 0 µg/mL
Plasma concentration on Day 1 at starting CBD dose, […], Mean (SD) (20 mg/kg/day group (N = 9)): 29.3 (28.5) ng/ml
